We go through 3 compounds from ChEMBL document CHEMBL1201862, “PubChem BioAssay data set” (2004).

Where “and” joins values, the source holds several entries; their conditions need not be identical. Identical values can stand only once.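 Method: 48-hour compound exposure of cells in 96-well plates, five concentrations, linear interpolation of endpoints. The concentration for 50% growth inhibition is given as GI50.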 Calls of active or inactive are those of the source. No stated cut-off is given here; in the data, active = GI50 up to about 1.1 µM and inactive = higher.

Test systems include HT-29; SF-295; KM12; HCT-116; CAKI-1; HOP-92; CCRF-CEM; MOLT-4; UACC-257; OVCAR-3; OVCAR-5; MDA-MB-435; SN12C; DU-145; SK-MEL-28; HCT-15; U-251; 786-0; EKVX; RPMI-8226; HCC 2998; COLO 205; ACHN; A549; NCI/ADR-RES; MCF7; M14; SK-MEL-5; NCI-H23; SK-OV-3; TK-10; IGROV-1; UACC-62; PC-3; LOX IMVI; HOP-62; OVCAR-8; UO-31; SK-MEL-2; MDA-N; K562; SW-620.
Holding throughout (experiment): NCI tumour cell line growth inhibition, 48 h

With `CC(Nc1n[nH]c(=O)c2c1nnn2Cc1ccccc1)c1ccccc1` (stereo unspecified), the GI50 is 12.2 µM (inactive) with HT-29; 34.4 µM (inactive) and 17.8 µM (inactive) in the assay with SF-295; > 100 µM (inactive) with KM12; 24.3 µM (inactive) and 27.5 µM (inactive) in the assay on HCT-116; 18.6 µM (inactive) and 34.1 µM (inactive) with CAKI-1; 22.8 µM (inactive) and 23.9 µM (inactive) with HOP-92. Moreover, the GI50 in the assay with CCRF-CEM is > 100 µM (inactive); with MOLT-4, 56.9 µM (inactive) and 37.2 µM (inactive); in the assay on UACC-257, 50.6 µM (inactive) and 71 µM (inactive); with OVCAR-3, > 100 µM (inactive) and 53.5 µM (inactive); in the assay on OVCAR-5, > 100 µM (inactive); in the assay on MDA-MB-435 it was 17.3 µM (inactive) and 22.3 µM (inactive). Besides, the GI50 in the assay with SN12C is > 100 µM (inactive); in the assay with DU-145, > 100 µM (inactive); with SK-MEL-28 it was > 100 µM (inactive) and 55.1 µM (inactive); in the assay on HCT-15 it was over 100 µM; in the assay with U-251 it was 26.1 µM (inactive) and 37.1 µM (inactive); in the assay with 786-0 it was 16.5 µM (inactive). In addition, the GI50 is > 100 µM (inactive) with EKVX; 72.8 µM (inactive) in the assay with RPMI-8226; > 100 µM (inactive) in the assay on HCC 2998; 77.4 µM (inactive) and 96.2 µM (inactive) in the assay with COLO 205; 52.7 µM (inactive) with ACHN; 23.8 µM (inactive) and 36 µM (inactive) with A549. For the same compound, the GI50 in the assay with NCI/ADR-RES was > 100 µM (inactive) and 57.8 µM (inactive); with MCF7, 31.9 µM (inactive) and 29.1 µM (inactive); in the assay with M14, > 100 µM (inactive); in the assay on SK-MEL-5, 18.8 µM (inactive) and 21.5 µM (inactive).
Turning to `CC(C)(/N=N/C(C)(C)C1=NCCN1)C1=NCCN1`, the GI50 in the assay on NCI-H23, in the assay on SK-OV-3, with CAKI-1, in the assay on TK-10, with HOP-92 and with A549 was > 100 µM (inactive) each time.
`Cc1cc(N)c2ccccc2[n+]1CCCCCCCCCCNc1cc(C)[n+](CCCCCCCCCC[n+]2c(C)cc(N)c3ccccc32)c2ccccc12`: the GI50 in the assay with IGROV-1 is 1.35 µM (inactive); with UACC-62, 0.608 µM (active); with PC-3, 1.02 µM (active); with NCI-H23, 0.516 µM (active); with HT-29, 11.6 µM (inactive); in the assay with SF-295, 1.32 µM (inactive). The GI50 in the assay with LOX IMVI is 1.79 µM (inactive); in the assay with KM12, 0.618 µM (active); in the assay on HOP-62 it was 0.929 µM (active); in the assay with HCT-116, 1.35 µM (inactive); with CAKI-1 it was 34.6 µM (inactive); in the assay on OVCAR-8, 1.61 µM (inactive). Also, the GI50 with CCRF-CEM was 0.52 µM (active); in the assay with MOLT-4, 1.01 µM (active); with UO-31 it was 1.86 µM (inactive); in the assay on OVCAR-3, 1.56 µM (inactive); with OVCAR-5, 1.49 µM (inactive); with MDA-MB-435, 427 nM (active). Besides, the GI50 is 0.293 µM (active) in the assay with SN12C; 1.41 µM (inactive) with SK-MEL-2; 1.75 µM (inactive) with DU-145; 528 nM (active) in the assay with SK-MEL-28; 1.75 µM in the assay on HCT-15; 406 nM (active) in the assay on U-251. Also, the GI50 in the assay with MDA-N is 0.333 µM (active); in the assay with 786-0, 0.547 µM (active); in the assay with K562, 0.4 µM (active); in the assay with EKVX, 14.6 µM (inactive); in the assay on RPMI-8226 it was 0.352 µM (active); in the assay on HCC 2998, 0.759 µM (active). In addition, the GI50 in the assay on COLO 205 was 375 nM (active); in the assay with ACHN, 0.964 µM (active); with A549 it was 0.692 µM (active); in the assay with MCF7 it was 682 nM (active); in the assay with M14, 0.746 µM (active); in the assay with SK-MEL-5, 439 nM (active). Moreover, the GI50 in the assay with SW-620 was 2.23 µM (inactive).
